Measurements: article PMC10641813 (Journal of Medicinal Chemistry, 2023)
Where “and” joins values, the source holds several entries; their conditions need not be identical. Identical values can stand only once. Like-named read-outs stand apart in the source and are kept apart here.

Tests used:
[1] = system: NCI/ADR-RES cells; assay: Inhibition of growth of NCI/ADR-RES DOX-resistant cells; format: cell-based, human; settings: for IC50: DOX-resistant cell line derived from OVCAR-8, 96 h
Procedure: (§1) ; 11 and 15, NCI/ADR-RES and OVCAR-8 cells) to 4.8 (19, OVCAR-8 cells). […] . […] Cells were seeded in 96-well plates.

[2] = system: tubulin; assay: Tubulin assembly (polymerization) assay; format: biochemical; settings: at 20 μM
Procedure: The reaction mixtures contained 0.8 M monosodium glutamate (pH 6.6 with HCl in a 2 M stock solution), 10 μM tubulin, 4% (v/v) DMSO, and varying concentrations of compound. […] The extent of the reaction was measured.

[3] = system: MCF-7 cells; assay: Inhibition of growth of MCF-7 cells; format: cell-based, human
Procedure: as §1

[4] = target: T1, hCA XII (Homo sapiens, UniProt O43570); assay: Stopped flow CO2 hydrase assay, hCA XII; format: biochemical; settings: stopped flow technique, mean from three assays
T1 construct: made in house

[5] = system: OVCAR-8 cells; assay: Inhibition of growth of OVCAR-8 cells; format: cell-based, human; settings: ovarian tumor cell line 8, 96 h
Procedure: as §1

[6] = target: T2, hCA IX (Homo sapiens, UniProt Q16790); assay: Stopped flow CO2 hydrase assay, hCA IX; format: biochemical
T2 construct: made in house

[7] = system: tubulin; settings: tubulin assembly; read-out: Tubulin IC50 ± SD; cited from earlier work
[8] = system: tubulin; settings: cited from earlier work
[9] = target: T3, hCA I (Homo sapiens, UniProt P00915); assay: Stopped flow CO2 hydrase assay, hCA I; format: biochemical; settings: for fold reduction in the inhibition of hCA I: relative to 11 (sulfonamide at para position); for Ki: stopped flow technique, mean from three assays
T3 construct: made in house

[10] = target: T4, hCA II (Homo sapiens, UniProt P00918); assay: Stopped flow CO2 hydrase assay, hCA II; format: biochemical; settings: stopped flow technique, mean from three assays
T4 construct: made in house

[11] = system: SW480 cells; assay: Inhibition of growth of SW480 cells (XTT); settings: read-out: IC50 SW480; human colorectal carcinoma cells; combinations: each compound at its IC50 concentration
Procedure: (§3) In drug combination studies, each compound was used at the corresponding IC50 concentration.
(§4) Cells were grown in Dulbecco’s modified Eagle’s medium (D-MEM) supplemented with 10% fetal bovine serum (FBS) at 37 °C with 5% CO2. In all experiments, 300,000 cells were plated in 9 cm^2 dishes and exposed to test compound dissolved in DMSO (0.1% final concentration) at the indicated concentrations. […] Cells were kept at low passage, returning to the original frozen stocks every 3–4 months.

[12] = system: HCT116 cells; assay: Inhibition of growth of HCT116 cells (MTT); settings: read-out: IC50 HCT116; human colorectal carcinoma cells; combinations: each compound at its IC50 concentration
Procedure: as §3, §4

[13] = system: SW620 cells; assay: Inhibition of growth of SW620 cells (XTT); settings: read-out: IC50 SW620; human colorectal carcinoma cells; combinations: each compound at its IC50 concentration
Procedure: as §3, §4

[14] = system: MDCK/P-gp cells; assay: Viability of MDCK/P-gp cells with DOX alone or coincubated with 15 (WST-1); format: cell-based, canine; settings: 5 μM DOX alone, 72 h
Procedure: (§2) Cells were seeded in 96-well plates.

[15] = system: HT29/DX cells; assay: Viability of HT29/DX cells with DOX alone or coincubated with 15 (WST-1); format: cell-based, human; settings: 5 μM DOX alone, 72 h
Procedure: as §2

[16] = Viability of MDCK cells with DOX alone or coincubated with 15 (WST-1); format: cell-based, canine; settings: dog, MDCK cells (sensitive, parental); read-out: cell viability
Procedure: as §2

[17] = system: NCI/ADR-RES cells; parameters: method as in PMID 22044164; settings: DOX-resistant cell line; cited from earlier work
[18] = human nonmetastatic breast cancer epithelial cells
[19] = stopped flow technique, mean from three assays

T3 sequence (P00915 whole entry): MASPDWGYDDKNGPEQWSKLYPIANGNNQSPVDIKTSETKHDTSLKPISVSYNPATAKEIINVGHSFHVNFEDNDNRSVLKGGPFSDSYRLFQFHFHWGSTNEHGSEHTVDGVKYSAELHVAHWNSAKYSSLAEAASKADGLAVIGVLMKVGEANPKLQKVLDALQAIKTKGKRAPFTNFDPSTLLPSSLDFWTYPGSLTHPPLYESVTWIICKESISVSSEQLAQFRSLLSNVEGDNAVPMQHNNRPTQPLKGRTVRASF
T1 sequence (O43570 25-354): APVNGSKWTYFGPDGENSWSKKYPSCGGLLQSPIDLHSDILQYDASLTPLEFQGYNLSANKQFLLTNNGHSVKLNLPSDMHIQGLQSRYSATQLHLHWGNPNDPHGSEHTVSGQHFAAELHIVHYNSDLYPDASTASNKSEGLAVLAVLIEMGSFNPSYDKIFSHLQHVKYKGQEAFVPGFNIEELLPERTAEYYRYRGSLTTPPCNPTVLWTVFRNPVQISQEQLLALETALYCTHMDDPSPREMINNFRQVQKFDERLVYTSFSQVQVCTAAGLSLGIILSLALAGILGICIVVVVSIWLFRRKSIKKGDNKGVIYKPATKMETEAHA

Compound	Ki [4] [nM]	Ki [6, 19] [nM]	Ki [9] [nM]	Ki [10] [nM]	further results
4-(3-(3,4,5-trimethoxybenzoyl)-1H-pyrrol-1-yl)benzenesulfonamide [Compound 11]	11.5				IC50 [1]: 1900 nM and 2200 nM; inhibition of tubulin assembly [2]: did not inhibit tubulin assembly; IC50 [3, 18]: 3900 ± 80 nM; IC50 [5]: 1900 ± 70 nM
4-(3-Benzoyl-1H-indol-1-yl)benzenesulfonamide [Compound 18]	52				Ki [6]: 31.6 nM
4-(3-Benzoyl-1H-pyrrol-1-yl)benzenesulfonamide [Compound 10]	47.1	66			
4-(3-Benzoyl-4-phenyl-1H-pyrrol-1-yl)benzenesulfonamide [Compound 14]	59.4	38.6			
COc1ccc(/C=C\c2cc(OC)c(OC)c(OC)c2)cc1O [CSA4, combretastatin A-4, reference compound]					IC50 ([3]; Homo sapiens, MCF7, reference compound in the MCF-7 assay): 15 nM
COc1cc(C(=O)c2ccn(-c3ccccc3)c2)cc(OC)c1OC [Compound 2]					IC50 [7]: 1500 nM; inhibition of colchicine binding [8]: 81%
COc1cc(C(=O)c2cn(-c3ccccc3)cc2-c2ccccc2)cc(OC)c1OC [Compound 3]					IC50 [7]: 1100 nM; inhibition of colchicine binding [8]: 66%
COc1cc(C(=O)c2ccn(-c3cccc(S(N)(=O)=O)c3)c2)cc(OC)c1OC [Compound 12, 3-(3-(3,4,5-Trimethoxybenzoyl)-1H-pyrrol-1-yl)benzenesulfonamide]	21.3	34.7	644	84.2	fold reduction in the inhibition of hCA I [9]: 6.7 fold; EC50 ([1]; Homo sapiens, NCI/ADR-RES, DOX-resistant cell line): 2100 to 2200 nM
COc1cc(C(=O)c2ccn(-c3ccccc3S(N)(=O)=O)c2)cc(OC)c1OC [Compound 13, 2-(3-(3,4,5-Trimethoxybenzoyl)-1H-pyrrol-1-yl)benzenesulfonamide]	425	229	5840	888	fold reduction in the inhibition of hCA I [9]: 61.0 fold
COc1cc(C(=O)c2cn(-c3cccc(S(N)(=O)=O)c3)cc2-c2ccccc2)cc(OC)c1OC [Compound 16, 3-(3-Phenyl-4-(3,4,5-trimethoxybenzoyl)-1H-pyrrol-1-yl)benzenesulfonamide]	28.9	39.1	1030	186	
COc1cc(C(=O)c2cn(-c3ccccc3S(N)(=O)=O)cc2-c2ccccc2)cc(OC)c1OC [Compound 17, 2-(3-Phenyl-4-(3,4,5-trimethoxybenzoyl)-1H-pyrrol-1-yl)benzenesulfonamide]	1000	8860	> 10000	> 10000	
COc1cc(C(=O)c2cn(-c3ccc(S(N)(=O)=O)cc3)c3ccccc23)cc(OC)c1OC [Compound 19, 4-(3-(3,4,5-Trimethoxybenzoyl)-1H-indol-1-yl)benzenesulfonamide]			446	67.8	IC50 [11]: 37400 ± 1400 nM; Ki [6]: 7.3 nM; IC50 [1]: 2100 ± 200 nM; IC50 [12]: 14900 ± 1300 nM; IC50 [13]: 45400 ± 1700 nM; inhibition of tubulin assembly [2]: partial inhibition; IC50 [3, 18]: 3600 ± 1000 nM; IC50 [5]: 4800 ± 300 nM
COc1cc(C(=O)c2cn(-c3cccc(S(N)(=O)=O)c3)c3ccccc23)cc(OC)c1OC [Compound 20, 3-(3-(3,4,5-Trimethoxybenzoyl)-1H-indol-1-yl)benzenesulfonamide]	58.1	69	943	229	
COc1cc(C(=O)c2cn(-c3ccccc3S(N)(=O)=O)c3ccccc23)cc(OC)c1OC [Compound 21, 2-(3-(3,4,5-Trimethoxybenzoyl)-1H-indol-1-yl)benzenesulfonamide]	1190	7750	> 10000	> 10000	
COc1cccc2c1C(=O)c1c(O)c3c(c(O)c1C2=O)C[C@@](O)(C(=O)CO)C[C@@H]3O[C@H]1C[C@H](N)[C@H](O)[C@H](C)O1 [DOX, doxorubicin, reference compound]					cell viability [14]: did not affect the viability; cell viability [15]: did not affect the viability; viability at 72 h, 5 μM [16]: < 30%
CCC1=C[C@@H]2CN(C1)Cc1c([nH]c3ccccc13)[C@@](C(=O)OC)(c1cc3c(cc1OC)N(C)[C@H]1[C@@](O)(C(=O)OC)[C@H](OC(C)=O)[C@]4(CC)C=CCN5CC[C@]31[C@@H]54)C2 [vinorelbine]					IC50 [17]: 5000 ± 1000 nM
